According to patent US12193994B2, “Combination of a cell therapy and a gamma secretase inhibitor” (Juno Therapeutics, Inc., priority 2017, dated 2025):

Key:
MM1S cells = experiment: Serial restimulation of anti-BCMA CAR+ T cells with irradiated target cells: expansion and cytokines; assay type: cell-based, human; settings: 0.001 μM and 1.0 μM
Source text: The ability of CAR T cells to expand ex vivo following repeated rounds of antigen stimulation can correlate with in vivo function and/or capacity of the cells to persist in in vivo (e.g., following administration and initial activation in response to encounter with antigen) (Zhao et al. (2015) Cancer Cell, 28:415-28). To assess the effect of the exemplary gamma secretase inhibitor on CAR-T cell activity after serial restimulation, anti-BCMA CAR+ T cells were generated as described above in Example 2, and irradiated BCMA-expressing target cells (MM1S cells) were added at an effector-to-target (E:T) ratio of 1:2 in the presence of LY3039478 at two different concentrations, either 0.001 μM (a concentration around the IC50) or a higher concentration of 1.0 μM (approximately 3 times Cmax), or with vehicle only control. The assay was performed on a composition of anti-BCMA CAR+ T cells generated from T cells derived from a healthy donor or from a donor with multiple myeloma. Every 3-4 days, CAR-expressing T cells were harvested, counted and re-plated at the initial seeding density with fresh media containing new irradiated target cells at the same E:T ratio in the presence or absence of the same concentration of LY3039478. A total of 3-5 rounds of stimulation were carried out during a 10-14 day culture period. Effects of the inhibitor on T cell function were assessed by monitoring the cell number (FIGS. 4A and 4B) or cytokine production in harvested supernatant (FIG. 5A and FIG. 5B) at each round of stimulation.
The production of cytokines by anti-BCMA CAR-T cells upon restimulation with antigen-expressing cells in the presence or absence of LY3039478 was assessed after the first round of re-plating at day 4. Culture supernatants were harvested 24 hours after re-plating, and IFN-gamma, IL-2 and TNF-alpha were measured from the culture supernatants.

anti-BCMA CAR+ T cells = experiment: Anti-BCMA CAR+ T cells incubated with BCMA-containing beads +/- LY3039478 (Luminex); assay type: cell-based, human; settings: different concentrations
Protocol: Various parameters indicative of T cell function were assessed following incubation of anti-BCMA CAR+ T cells with BCMA-containing beads in the presence of different concentrations of the gamma secretase inhibitor, LY3039478, or vehicle (DMSO). Supernatant was harvested after 24 hours and production of TNF-alpha, IFN-gamma and IL-2 were measured using a Luminex Multiplex Assay.

[1] = 24 hours after re-plating at day 4, both donors

Compound: C[C@H](NC(=O)CCC(F)(F)F)C(=O)N[C@@H]1C(=O)N(CCO)c2ncccc2-c2ccccc21 [LY3039478, 4,4,4-trifluoro-N-[(1S)-2-[[(7S)-5-(2-hydroxyethyl)-6-oxo-7H-pyrido[2,3-d][3]benzazepin-7-yl]amino]-1-methyl-2-oxo-ethyl]butanamide]
- levels of IFN-gamma (MM1S cells; [1]): Increased levels
- levels of IL-2 (MM1S cells; [1]): Increased levels
- levels of TNF-alpha (MM1S cells; [1]): Increased levels
- expansion of anti-BCMA CAR T cells (MM1S cells; E:T 1:2, 10-14 days, healthy and myeloma donor): increased expansion
- detrimental effects on CAR-T cell function (MM1S cells; serial restimulation): did not exhibit any detrimental effects
- CAR+ T cell count (anti-BCMA CAR+ T cells): did not impact
- viability (anti-BCMA CAR+ T cells): did not impact
- cytokine production (TNF-alpha, IFN-gamma and IL-2) (anti-BCMA CAR+ T cells; 24 hours): did not impact
